Assay results from patent US20080095790A1, “Methods of Treating Prostate Cancer” (priority 2006, published 2008).

Assays:
[1] = tested on: PSA-peptide tetramer+CD8+ cells; assay: PSA-peptide-HLA-A2 tetramer analysis of PBMC from vaccinated patients; type: in vivo, human; conditions: out of 28 patients (50%), week 26 and/or week 52
[2] = DTH skin testing with PSA-peptide; type: in vivo, human
Experimental: A total of 28 patients were vaccinated with PSA-peptide at three time points, i.e., weeks 1, 4 and 10 and DTH skin testing was performed on weeks 4, 14, 26 and 52.

[3] = tested on: DTH-derived T-cells; assay: Cytokine bead array (CBA) of DTH-derived T-cells cultured with peptide-pulsed T2 cells; type: cell-based, human
Experimental: Out-growth of T-cells was observed within 3 days. On day 4, 500 μl of the spent medium was aspirated and replenished with fresh medium plus IL-2 and cultured further for a total of 6-8 days, until the culture wells became confluent. […] Each cycle of stimulation was 7±1 days. Cytokines released into the culture supernatant, including IFN-γ, TNF-α, IL-4, IL-6 and IL-10, were measured concurrently by cytokine bead array (CBA) analysis (BD Biosciences, San Diego, Calif.). The antigen presenting cell line, T2 (ATCC, Manassas, Va.) was used as a stimulator and was pulsed with 20 μg/ml of PSA-peptide or control HLA-A2 binding peptide, HIV-RT476-484 or diluent alone (0.4% volume by volume). T2 cells (25,000/well) were cultured with DTH-derived T-cells (100,000/well) in complete medium containing 30 U/ml of IL-2 in a total volume of 1 ml per well in 48-well plates. […] Cells were incubated at 37° C. for 24 hours in 5% CO2 atmosphere. Supernatants were harvested and stored in sterile vials at −80° C. At the time of assay, samples were thawed and cytokines were measured using a CBA kit as per the manufacturer's protocol with a FACSCalibur flow cytometer (Becton Dickinson, Mountain View, Calif.).

[4] = tested on: T2 cells; assay: Chromium release assay (CRA), 4 hour; type: cell-based, human
Experimental: Specific cytolytic activity was analyzed by standard 4 hour CRA as previously described (Xue et al., (1997) Prostate 30:73). […] Supernatants recovered from CRA were assayed for gamma emission using a Top-count NXT scintillation counter (Packard, Meriden, Conn.) and the percent specific lysis was calculated as previously described (Xue et al., (1997) Prostate 30:73).

[5] = 6 out of 7 patients, after 1-3 cycles in vitro stimulation with PSA-peptide
[6] = four patients, after 1-3 cycles in vitro stimulation

KLQCVDLHV (listed as Homo sapiens) [PSA-peptide]
patients who developed ≧4 fold increases in CD8+ PSA-peptide specific tetramer cells [1]: 14 patients | DTH induration with increasing doses of peptide ([2]; 1 to 20 μg peptide, responding patients): increasing level of DTH induration | patients who developed positive DTH responses to PSA-peptide over time ([2]; of 28 patients (fifty percent), DTH testing weeks 4, 14, 26, 52): 14 patients | specific IFN-γ responses, median [3, 5]: 163 pg/mL | specific IFN-γ responses, range over patients [3, 5]: 85 to 1030 pg/mL | specific levels of IL-4, range over patients [3, 6]: 18 to 486 pg/mL | specific levels of TNF-α, median [3, 6]: 38 pg/mL | specific levels of TNF-α, range over patients [3, 6]: 23 to 96 pg/mL | IL-6 expression ([3]; one patient (UPIN 49)): Non-specific expression | patients whose DTH-derived T-cells showed specific IFN-γ responses ([3]; out of 7 patients): 6 patients | cytokine responses against T2 cells pulsed with PSA-peptide compared to HIV-RT476-484 or no peptide ([3]; patient UPIN55, cycle 0, without peptide priming in vitro): specific cytokine responses | lysis of PSA-peptide-pulsed T2 cells by sorted CD4−CD8+ T-cells, compared to HIV-RT476-484 or no peptide ([4]; 4 patients, 1-4 cycles in vitro stimulation): peptide-specific lysis | cytolytic activity of induced T-cells ([4]; patient UPIN40): modest cytolytic activity | cytolytic activity of induced T-cells ([4]; patients UPIN45, UPIN 55, UPIN 49): strongly cytolytic
